We go through 14 compounds from ChEMBL document CHEMBL5365529, “Construction and Evaluation of Novel Dual-function Antifungal Inhibitors and Covalent Organic Framework Carriers Based on the Infection Microenvironment” (J Med Chem, 2023).

The MIC50 is the lowest concentration that inhibits either 50% of growth or 50% of the strains tested, depending on the study.

SMILES strings stand for the structures. Values after ≈ are worked out from the molar mass of the structure shown.

Common to all, as to type: functional
One experiment has as its system Cryptococcus neoformans. In words: Antifungal activity against Cryptococcus neoformans ZKCC 2209 assessed as fungal growth inhibition incubated for 72 hrs by CLSI based susceptibility test.
For the next experiment, the system named is Candida albicans. The experiment in a line: Antifungal activity against Candida albicans SC5314 assessed as fungal growth inhibition incubated for 72 hrs by CLSI based susceptibility test.
The next experiment has as its system Candida tropicalis. In words: Antifungal activity against Candida tropicalis ATCC 1369 assessed as fungal growth inhibition incubated for 72 hrs by CLSI based susceptibility test.
Another experiment relates to Aspergillus fumigatus. The experiment in a line: Antifungal activity against Aspergillus fumigatus KM8001 assessed as fungal growth inhibition incubated for 72 hrs by CLSI based susceptibility test.
For a further experiment, the system named is Nakaseomyces glabratus. The experiment in a line: Antifungal activity against Candida glabrata assessed as fungal growth inhibition incubated for 72 hrs by CLSI based susceptibility test.

Take `Cc1c(COc2cccc(CN[C@H](Cn3cncn3)C(=O)OC(C)C)c2)cccc1-c1ccccc1`: the MIC50 stood at 2 mg/L (≈ 4.13 µM) in the experiment with Cryptococcus neoformans; 2 mg/L (≈ 4.13 µM) in the experiment with Candida albicans; 2 mg/L (≈ 4.13 µM) with Candida tropicalis; 8 mg/L (≈ 16.5 µM) in the experiment with Aspergillus fumigatus; 0.25 mg/L (≈ 0.516 µM) with Nakaseomyces glabratus.
Turning to `COC(=O)[C@@H](Cn1ccnc1)NC(=O)C1CCCN(C(=O)c2cccc(-c3ccccc3)c2)C1` (stereo not given in full), the MIC50 was 4 mg/L (≈ 8.69 µM) in the experiment with Cryptococcus neoformans; 1 mg/L (≈ 2.17 µM) with Candida albicans; 2 mg/L (≈ 4.34 µM) with Candida tropicalis; greater than 8 mg/L in the experiment on Aspergillus fumigatus; 0.5 mg/L (≈ 1.09 µM) in the experiment with Nakaseomyces glabratus.
On the same counts, the results for `Cc1c(CN2CCCC(C(=O)N[C@H](Cn3ccnc3)C(=O)OC(C)C)C2)cccc1-c1ccccc1` (stereo not given in full) are 1 mg/L (≈ 2.05 µM), 0.5 mg/L (≈ 1.02 µM), 1 mg/L (≈ 2.05 µM), greater than 8 mg/L and 0.5 mg/L (≈ 1.02 µM).
As to `CCOC(=O)[C@@H](Cn1cncn1)NC(=O)C1CCCN(C(=O)c2cccc(-c3ccccc3)c2)C1` (stereo not given in full), the MIC50 is 2 mg/L (≈ 4.21 µM) in the experiment on Cryptococcus neoformans; 0.25 mg/L (≈ 0.526 µM) in the experiment with Candida albicans; 0.5 mg/L (≈ 1.05 µM) in the experiment on Candida tropicalis; greater than 8 mg/L in the experiment on Aspergillus fumigatus; 0.5 mg/L (≈ 1.05 µM) in the experiment with Nakaseomyces glabratus.
On to `COC(=O)[C@@H](Cn1cncn1)NC(=O)C1CCCN(Cc2cccc(-c3ccccc3)c2C)C1` (stereo not given in full), for which the MIC50 in the experiment with Cryptococcus neoformans was determined as 2 mg/L (≈ 4.33 µM); in the experiment on Candida albicans, 0.5 mg/L (≈ 1.08 µM); in the experiment with Candida tropicalis, 1 mg/L (≈ 2.17 µM); in the experiment on Aspergillus fumigatus, 4 mg/L (≈ 8.67 µM); in the experiment on Nakaseomyces glabratus, 2 mg/L (≈ 4.33 µM).
On to `CCOC(=O)[C@@H](Cn1ccnc1)NCc1cccc(OCc2cccc(-c3ccccc3)c2C)c1`, for which the MIC50 in the experiment with Cryptococcus neoformans is 1 mg/L (≈ 2.13 µM); in the experiment with Candida albicans, 0.5 mg/L (≈ 1.06 µM); in the experiment on Candida tropicalis, 0.5 mg/L (≈ 1.06 µM); in the experiment on Aspergillus fumigatus it was 4 mg/L (≈ 8.52 µM); with Nakaseomyces glabratus, 1 mg/L (≈ 2.13 µM).
Turning to `CC(C)OC(=O)[C@@H](Cn1cncn1)NC(=O)C1CCCN(C(=O)c2cccc(-c3ccccc3)c2)C1` (stereo not given in full), the MIC50 stood at 2 mg/L (≈ 4.09 µM) with Cryptococcus neoformans; 0.5 mg/L (≈ 1.02 µM) in the experiment on Candida albicans; 1 mg/L (≈ 2.04 µM) in the experiment on Candida tropicalis; 4 mg/L (≈ 8.17 µM) with Aspergillus fumigatus; 1 mg/L (≈ 2.04 µM) in the experiment on Nakaseomyces glabratus.
For the compound `COC(=O)[C@@H](Cn1ccnc1)NCc1cccc(OCc2cccc(-c3ccccc3)c2C)c1`, the MIC50 in the experiment with Cryptococcus neoformans is 1 mg/L (≈ 2.2 µM); in the experiment on Candida albicans, 0.5 mg/L (≈ 1.1 µM); in the experiment on Candida tropicalis it was 2 mg/L (≈ 4.39 µM); with Aspergillus fumigatus it was greater than 8 mg/L; in the experiment with Nakaseomyces glabratus, 1 mg/L (≈ 2.2 µM).
For the compound `CCOC(=O)[C@@H](Cn1cncn1)NCc1cccc(OCc2cccc(-c3ccccc3)c2C)c1`, the MIC50 in the experiment on Cryptococcus neoformans turned out to be 2 mg/L (≈ 4.25 µM); with Candida albicans, 1 mg/L (≈ 2.13 µM); in the experiment with Candida tropicalis, 1 mg/L (≈ 2.13 µM); in the experiment with Aspergillus fumigatus, 4 mg/L (≈ 8.5 µM); in the experiment with Nakaseomyces glabratus, 0.25 mg/L (≈ 0.531 µM).
Take `COC(=O)[C@@H](Cn1ccnc1)NC(=O)C1CCCN(Cc2cccc(-c3ccccc3)c2C)C1` (stereo not given in full): the MIC50 is 0.5 mg/L (≈ 1.09 µM) in the experiment on Cryptococcus neoformans; 0.5 mg/L (≈ 1.09 µM) with Candida albicans; 1 mg/L (≈ 2.17 µM) with Candida tropicalis; 4 mg/L (≈ 8.68 µM) with Aspergillus fumigatus; 2 mg/L (≈ 4.34 µM) with Nakaseomyces glabratus.
`CCOC(=O)[C@@H](Cn1ccnc1)NC(=O)C1CCCN(Cc2cccc(-c3ccccc3)c2C)C1` (stereo not given in full): the MIC50 in the experiment on Cryptococcus neoformans is 1 mg/L (≈ 2.11 µM); with Candida albicans it was 0.25 mg/L (≈ 0.527 µM); in the experiment on Candida tropicalis it was 0.25 mg/L (≈ 0.527 µM); in the experiment with Aspergillus fumigatus, greater than 8 mg/L; with Nakaseomyces glabratus it was 0.5 mg/L (≈ 1.05 µM).
With `CCOC(=O)[C@@H](Cn1ccnc1)NC(=O)C1CCCN(C(=O)c2cccc(-c3ccccc3)c2)C1` (stereo not given in full), the MIC50 turned out to be 1 mg/L (≈ 2.11 µM) with Cryptococcus neoformans; 0.5 mg/L (≈ 1.05 µM) in the experiment with Candida albicans; 0.5 mg/L (≈ 1.05 µM) with Candida tropicalis; 4 mg/L (≈ 8.43 µM) in the experiment with Aspergillus fumigatus; 1 mg/L (≈ 2.11 µM) in the experiment with Nakaseomyces glabratus.
As for `Cc1c(COc2cccc(CN[C@H](Cn3ccnc3)C(=O)OC(C)C)c2)cccc1-c1ccccc1`, the MIC50 is 2 mg/L (≈ 4.14 µM) in the experiment on Cryptococcus neoformans; 0.25 mg/L (≈ 0.517 µM) with Candida albicans; 0.5 mg/L (≈ 1.03 µM) in the experiment with Candida tropicalis; 4 mg/L (≈ 8.27 µM) with Aspergillus fumigatus; 0.5 mg/L (≈ 1.03 µM) in the experiment on Nakaseomyces glabratus.
Turning to `CCOC(=O)[C@@H](Cn1cncn1)NC(=O)C1CCCN(Cc2cccc(-c3ccccc3)c2C)C1` (stereo not given in full), the MIC50 in the experiment with Cryptococcus neoformans was 2 mg/L (≈ 4.21 µM); in the experiment on Candida albicans, 0.25 mg/L (≈ 0.526 µM); with Candida tropicalis, 0.5 mg/L (≈ 1.05 µM); with Aspergillus fumigatus it was greater than 8 mg/L; in the experiment on Nakaseomyces glabratus, 0.5 mg/L (≈ 1.05 µM).
